Data: EP4349409A1, “COMPOUNDS FOR THE MANAGEMENT OF CELL STEMNESS AND INVASION IN CANCER AND RELATED DISEASES” (Instituto Biomar S.A., priority 2022, dated 2024)

Columns and labels:
[1] = tested on: normal human fetal neural stem cells-NSC; assay: Long term MTT viability, normal neural stem cells; format: cell-based; conditions: CD133-positive NSC, 1.125-4.5 µM
Protocol: (§1) Previous studies have reported that the molecular signature of the GNSC G144 cell line corresponds to a 'proneural' subtype of GB with NSC features (Pollard et al., 2009; Danovi et al., 2013). Thus, to test BMT9 specificity we compared cellular viability when treating CD133-positive cells (either GNSCs or normal human fetal neural stem cells-NSC) versus CD133-negative human embryonic fibroblast (HEFs) (Figure 8A). MTT-based cytotoxicity assay (Figure 7B-D) were performed as previously described.

G144 [2] = assay: MTT-based cytotoxicity assay, G144; format: cell-based, human; conditions: for IC50: G144, MTT, 72 h
Protocol: A dose-response analysis of BMT9 (concentrations ranging from 4.5 µM-18 µM), BCNU (from 150 µM-500 µM) and TMZ (350 µM-700 µM) was performed in two conventional glioblastoma cell lines (T98G, U373) and the GNS cell line G144 by MTT-based cytotoxicity assays (Figure 5A-D). Cells were seeded on p96-well plates and treated with the different compounds for 72 h. Then, the MTT reagent (3-(4,5-Dimethyl-2-thiazolyl)-2,5-diphenyl-2H-tetrazolium bromide diluted in PBS to a concentration of 1mg/ml), was added to each well to a final concentration of 0.33mg/ml, and incubated for 3 h at 37°C. After that, the media was removed, and formazan crystals were solubilized with DMSO. Absorbance was measured at 560 nm using a "Synergy HT" plate reader (Biotek). In the graphs, the Y axis represents the percentage of cell viability relative to non-treated cells. The IC50, when reached are marked by a rectangle. DMSO treatment had no effect on cell viability.
as §1
(§2) While the first line therapy of gliomas has proven its effectiveness and improved clinical outcomes, acquired chemoresistance to alkylating agents has been identified as a major cause of treatment failure (Sarkaria et al., 2008). In a murine model of GB, long-term treatment with subtoxic TMZ doses enriched the side population of cancer stem cells, increasing the tumor aggressiveness (Bleau et al., 2009). Thus, we generated TMZ-resistant G144-clones that were selected upon treatment with TMZ either at 500 µM or 700 µM for several months (R500 and R700, respectively). The obtained clones maintained CD133 stem marker expression (Figure 9A). We then analyzed BMT9 dose-dependent effect on cell viability, by MTT assay, comparing the resistant clones to parental cells.

G179 [3] = assay: Scratch (wound healing) assay, G179; format: cell-based; conditions: G179, 4.5µM, 24 h
Protocol: (§3) The effect of BMT9 in cell migration was evaluated using scratch assays, also known as wound healing assays. Cells were seeded in culture inserts for wound healing assays (Ibidi) at a cell density of 35,000 cells/cm^2; 24 h later the insert was removed to create the wound, and fresh medium was added with the corresponding treatment. Microscopy images were acquired at the time of treatment and 24 h later, using a Leica DMI3000 phase contrast microscope. Analysis was performed using the ImageJ software (Schindelin et al., 2012) and the MRI wound healing tool plugin (Suarez-Arnedo et al., 2020). Cell-free area was measured at the two indicated time points and the wound closure percentage relative to the starting point was calculated for each well individually. This assay was performed in G144 and in G179 cells (Figure 10 B and C, respectively).

G179 [4] = assay: MTT-based cytotoxicity assay, G179; format: cell-based; conditions: G179, 72 h after treatment
G144 R500 = assay: MTT assay, TMZ-resistant clone G144 R500; format: cell-based; conditions: Homo sapiens, 72 hours
Source text: as §2

G144 [5] = assay: Scratch (wound healing) assay, G144; format: cell-based, human; conditions: G144, 4.5µM, 24 h
Protocol: as §3

GNSC = assay: Immunostaining for Nestin, Tuj1 and GFAP (differentiation) in GNSC; format: cell-based; conditions: 4.5 µM
Protocol: Moreover, we asked whether BMT9, at IC50 concentration, induced differentiation of these GNSC. For these experiments, cells were seeded under proliferation conditions and treated with BMT9 at 4.5 µM for 72 h. Cells were fixed with 3.7% paraformaldehyde for 15 min and immunostained with Nestin, Tuj1 and GFAP specific antibodies. Samples were analyzed using a Zeiss LSM800 confocal microscopy. To quantify the percentage of neural (Tuj-1) (Figure 7D) and astrocytic (GFAP+) (Figure 7E) differentiated cells, positive cells for each marker were manually counted and compared with the total number of cells.

G144 cells = assay: 3D spheroid cell-invasion assay in Matrigel, G144; format: cell-based, human; conditions: 24 h
Protocol: A hallmark of glioblastoma cell infiltration through a 3D environment is the extension of long, thin polarized membrane extensions that explore and penetrate the surrounding environment. The 3D spheroid cell-invasion model consists in generating cell spheroids by suspension culture that are subsequently embedded in a 3D matrix. G144 cells were seeded on non-adherent conditions (without laminin coating) at a cell concentration of 40,000 cells/ml. After 8 days, spheres were embedded in a 2:1 mixture of Matrigel and growth media. Matrigel mix was let to polymerize at 37°C for 30 minutes, and then it was covered with growth media. Migration was monitored by phase-contrast microscopy for 24 h and the area of each sphere at the initial and final time points was measured using the ImageJ software, in order to calculate the ratio between both areas (Figure 10D, Y axis).

GNSCs = assay: Sphere-forming clonogenic assay of GNSCs; format: cell-based; conditions: 4.5 µM and 9 µM, sphere forming conditions (data not shown)
Protocol: To further investigate whether BMT9 reduced stemness potential of the GNSCs, we performed a sphere-forming clonogenic assay. Cells were seeded on sphere forming conditions, that is 40,000 cells/ml without laminin coating. Cells were treated with BMT9 at 4.5 µM and 9 µM 24 h after seeding.

[6] = tested on: invasiveness-related genes; assay: qRT-PCR of invasiveness-related genes in G144 cells; format: cell-based, human; conditions: G144, 4.5 µM, 72 h
Protocol: For expression analysis, G144 cells were treated with BMT9 (4.5 µM) and after 72 h mRNA was extracted and qRT-PCR was performed.

P1-TP73 promoter = assay: P1-p73-Fluc-DsRed reporter screening of natural compounds in U373 cells; format: cell-based, human; conditions: U373, 8 µg/ml, 48 h after treatment
Protocol: The conventional GB cell line U373 was used to perform a low-throughput chemical screen to identify P1-TP73-promoter regulators from a panel of 51 natural compounds with novel chemical structures (BMT-1 to BMT-51). Cells were seeded on black microplates and 24 h later they were transfected with 1 µg of P1-p73-Fluc-DsRed plasmid using Lipofectamine 3000™ reagent (ThermoFisher) following the manufacturer's instructions. Six hours later, transfected cells were treated either with 8 µg/ml of any of the tested compounds or with the drugs used as first line glioblastoma treatment: the methylating agent temozolomide (TMZ) and the chloroethyl-derivative of nitrosourea carmustine (BCNU), or equivalent volumes of DMSO. […] The compound BMT18 was also found to have autofluorescence.

**Q.** Which results are given for `C=C1C2CCC(C)(C3COc4c(C)c(OC)c5c(c4C3O)C(O)OC5=O)C1CCC2(C)C` (stereo not shown) [BMT9]?
**A.** cellular viability in long term culture [1]: affected; concentration as low as which still reduced viability (G144 [2]; G144, 72 h after treatment): 2.25 µM; IC50 (G144 [2]): 4.5 µM; cellular viability in long term culture (G144 [2]; GNSC (G144, CD133-positive), 1.125-4.5 µM): stronger effect against GNSC; IC50 (G144 [2]; Homo sapiens): < 4.5 µM; cell migration (wound closure) (G179 [3]): significantly impaired cell migration; concentration as low as which still reduced viability (G179 [4]): 6.75 µM; IC50 (G144 R500): 4.5 to 9 µM; cell migration (wound closure) (G144 [5]): significantly impaired cell migration; expression of the stem cell marker Nestin (GNSC; 72 h (data not shown)): reduced the expression of the stem cell marker Nestin; neural differentiation (Tuj1 and GFAP positive cells) (GNSC; 72 h, proliferating culture conditions): induced neural differentiation; invasion of cells within the matrix surrounding the spheres (G144 cells): significantly impaired the invasion of cells; sphere generation (GNSCs): reduce sphere generation in a dose dependent manner; expression of a set of invasiveness-related genes [6]: downregulation of all the analyzed genes; P1-TP73-promoter activity (fluorescence normalized to DMSO exposed cells) (P1-TP73 promoter): strongest and most reproducible repressive effect; pre-selection: modulatory effect of a 2-fold fluorescence increase or a 0.5-fold reduction (P1-TP73 promoter; direction per compound not given): pre-selected
